{"source": "patent US20250250642A1", "about": "“APOE GENOTYPING IN CANCER PROGNOSTICS AND TREATMENT” (The Rockefeller University, priority 2019, published 2025)", "key": {"[1]": {"tested_on": "solid cancers", "test": "RGX-104 in patients with solid cancers, radiographic tumor response by ApoE genotype", "format": "in vivo, human", "conditions": "monotherapy or combination with docetaxel, nivolumab or ipilimumab", "procedure": "RGX-104 was administered to patients with solid cancers as a monotherapy or in combination with either docetaxel, nivolumab, or ipilimumab. Fifty-one patients were evaluable for both radiographic assessment of tumor response and ApoE genotype. Below is a table showing the number of patients with each genotype and the number of clinical responses (Partial Responses) to the therapy."}, "[2]": {"tested_on": "YUMM1.7 tumors", "test": "Growth of YUMM1.7 tumors in human APOE knock-in mice under LXR-agonistic treatment", "format": "in vivo, mouse", "conditions": "RGX-104 in chow, approximate target dose 100 mg/kg body weight, from day 3 post injection", "procedure": "To assess the impact of APOE genotype on the growth of syngeneic melanoma, 1×10^5 YUMM1.7 cells were subcutaneously injected into the flank of 6-10-weeks-old, sex-matched human APOE targeted replacement mice. Cells were injected in a total volume of 100 μL, and YUMM1.7 cells were mixed 1:1 with growth factor reduced Matrigel (356231, Corning) before injection. Tumor size was measured on the indicated days using digital calipers, and tumor volume was calculated as (small diameter)^2×(large diameter)×Π/6. In experiments employing YUMMER1.7 cells, 5×10^5 cells resuspended in PBS were injected subcutaneously into the flank. For LXR-agonistic treatment, mice were administered chow supplemented with the synthetic LXR-agonist RGX-104 (Rgenix (Tavazoie, M., et al. (2018) Cell, 172 (4), 825-840)) at 628.5 mg/kg chow (Research Diets, approximate target dose of 100 mg/kg body weight) starting on day 3 post injection. For anti-PD1 treatment, mice were injected intraperitoneally with 250 μg and 125 μg of anti-PD-1 antibody (BioXCell, clone RMP1-14) on days 6 and 9 post tumor cell injection, respectively. Control mice received PBS injections on the same days. For survival analysis in the YUMMER1.7 model, mice were euthanized when the tumor volume exceeded 1000 mm^3. Therapy responses were considered complete (CR, complete response) when tumor volumes fell below 16 mm^3 (lowest limit of detection)."}, "[3]": {"conditions": "ApoE genotype E2/E3 (10 patients)"}, "[4]": {"conditions": "ApoE genotype E2/E4 (3 patients)"}, "[5]": {"conditions": "ApoE genotype E3/E3 (30 patients)"}, "[6]": {"conditions": "ApoE genotype E3/E4 (8 patients)"}}, "data": [{"compound": "C[C@H](CCOc1cccc(CC(=O)O)c1)N(Cc1cccc(C(F)(F)F)c1Cl)CC(c1ccccc1)c1ccccc1", "note": "[RGX-104, 2-[3-[(3R)-3-[[2-chloro-3-(trifluoromethyl)phenyl]methyl-(2,2-diphenylethyl)amino]butoxy]phenyl]acetic acid]", "values": [{"measurement": "Number of Partial Responses", "setting": "[1]; [3]", "value": 0}, {"measurement": "Percent of patients with a Partial Response", "setting": "[1]; [3]", "value": 0, "unit": "%"}, {"measurement": "Number of Partial Responses", "setting": "[1]; [4]", "value": 1}, {"measurement": "Percent of patients with a Partial Response", "setting": "[1]; [4]", "value": 33.3, "unit": "%"}, {"measurement": "Number of Partial Responses", "setting": "[1]; [5]", "value": 1}, {"measurement": "Percent of patients with a Partial Response", "setting": "[1]; [5]", "value": 3.3, "unit": "%"}, {"measurement": "Number of Partial Responses", "setting": "[1]; [6]", "value": 1}, {"measurement": "Percent of patients with a Partial Response", "setting": "[1]; [6]", "value": 12.5, "unit": "%"}, {"measurement": "efficacy of LXR agonism (tumor growth)", "setting": "[2]; APOE2 mice", "value": "completely abrogated"}, {"measurement": "efficacy of LXR agonism (tumor growth)", "setting": "[2]; APOE4 mice", "value": "robust anti-tumor effects"}]}]}
